Laboratory results reported in patent US12595252B2, “Inhibitors of SARM1” (DISARM THERAPEUTICS, INC., priority 2019, dated 2026).
Read-outs that look alike come from different tables or passages of the source.

Biological target: T1, SARM1 (Homo sapiens, UniProt Q6SZW1)
T1 construct: made in house; host or cells: NRK1-HEK293T cells, transiently transfected; clarified lysate used unpurified
T1 sequence (Q6SZW1 with tags, fused parts or gaps): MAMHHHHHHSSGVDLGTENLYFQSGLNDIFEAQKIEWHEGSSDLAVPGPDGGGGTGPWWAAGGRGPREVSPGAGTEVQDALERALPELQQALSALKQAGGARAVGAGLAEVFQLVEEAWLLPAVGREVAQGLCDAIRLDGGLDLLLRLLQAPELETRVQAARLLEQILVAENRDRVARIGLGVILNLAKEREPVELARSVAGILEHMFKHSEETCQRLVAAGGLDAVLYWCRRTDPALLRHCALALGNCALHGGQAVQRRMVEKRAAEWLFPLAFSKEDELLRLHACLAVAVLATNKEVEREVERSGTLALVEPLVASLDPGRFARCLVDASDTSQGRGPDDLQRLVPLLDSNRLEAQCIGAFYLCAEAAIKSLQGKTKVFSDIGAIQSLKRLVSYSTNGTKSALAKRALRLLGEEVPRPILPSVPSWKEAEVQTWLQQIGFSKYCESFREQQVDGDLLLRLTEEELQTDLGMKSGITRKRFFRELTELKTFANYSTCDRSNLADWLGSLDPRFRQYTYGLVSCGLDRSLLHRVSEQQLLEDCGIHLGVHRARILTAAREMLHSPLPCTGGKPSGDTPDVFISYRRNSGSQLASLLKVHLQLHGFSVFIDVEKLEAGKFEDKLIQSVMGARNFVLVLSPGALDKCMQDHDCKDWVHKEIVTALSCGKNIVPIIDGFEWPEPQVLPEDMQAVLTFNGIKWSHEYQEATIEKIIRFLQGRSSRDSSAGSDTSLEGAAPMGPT
Experiment: ARM-SAM-TIR SARM1 IC50 assay (NADase activity, NAD+ cleavage)
Format: biochemical
Description: This Example describes an assay of ARM-SAM-TIR NADase activity and use of this assay to measure the efficacy of compounds of Formula I to block SARM1 mediated NAD+ cleavage. This assay is optimized in such a way as to characterize the efficacy of the compounds in Formula I to inhibit SARM1 activity and to calculate an IC50 value for each compound. This assay makes use of full length SARM1, which encompasses the ARM, SAM and TIR domains.
NRK1-HEK293T cells were seeded onto 150 cm^2 plates at 20×10^6 cells per plate. The next day, the cells were transfected with 15 μg ARM-SAM-TIR expression plasmid, SEQ ID NO: 1.
The cultures were supplemented with 1 mM NR at time of transfection to minimize toxicity from ARM-SAM-TIR overexpression. Forty-eight hours after transfection, cells were harvested, pelleted by centrifugation at 1,000 rpm (Sorvall ST 16R centrifuge, Thermo Fisher), and washed once with cold PBS (0.01 M phosphate buffered saline NaCl 0.138 M; KCl 0.0027 M; pH 7.4). The cells were resuspended in PBS with protease inhibitors (cOmplete™ protease inhibitor cocktail, Roche product #11873580001) and cell lysates were prepared by sonication (Branson Sonifer 450, output=3, 20 episodes of stroke). The lysates were centrifuged (12,000×g for 10 min at 4° C.) to remove cell debris and the supernatants (containing ARM-SAM-TIR protein) were stored at −80° C. for later use in the in vitro ARM-SAM-TIR NADase assay (see below). Protein concentration was determined by the Bicinchoninic (BCA) method and used to normalize lysate concentrations.
The enzymatic assay was performed in a 384-well polypropylene plate in Dulbecco's PBS buffer in a final assay volume of 20 μL. ARM-SAM-TIR lysate with a final concentration of 5 μg/mL was pre-incubated with the respective compound at 1% DMSO final assay concentration over 2 h at room temperature. The reaction was initiated by addition of 5 μM final assay concentration of NAD+ as substrate. After a 2 hr room temperature incubation, the reaction was terminated with 40 μL of stop solution of 7.5% trichloroacetic acid in acetonitrile. The NAD+ and ADPR concentrations were analyzed by a RapidFire High Throughput Mass Spectrometry System (Agilent Technologies, Santa Clara, Calif.) using an API4000 triple quadrupole mass spectrometer (AB Sciex Framingham, Mass.).

[1] = ARM-SAM-TIR lysate 5 μg/mL from NRK1-HEK293T cells, 2 h pre-incubation, 5 μM NAD+, 2 hr room temperature, NAD+ and ADPR by RapidFire MS, read-out: SARM1 IC50

SMILES | IC50 [1] | IC50
CN(C)Cc1ccc(N2CCN(c3cncc(OCC4CCCC4)n3)CC2)nc1 [Example 2] | > 30 µM | 
CCOc1cncc(NCc2ccc(N3CCN(CC)CC3)nc2)n1 [Example 3] | 5 to 15 µM | 
CCOc1cncc(NCc2ccc(N3CCN(CC)CC3)cc2)n1 [Example 7] | 5 to 15 µM | 
CCN1CCN(c2ccc(CNc3cncc(OC)n3)cn2)CC1 [Example 8] | 5 to 15 µM | 
CCOc1cncc(NCc2ccc(C)nc2)n1 [Example 9] |  | 5 to 15 µM
CCOc1cncc(NCc2ccccc2)n1 [Example 10] | 15 to 30 µM | 
COc1cncc(NCc2cccnc2)n1 [Example 12] | 5 to 15 µM | 
CC(C)Oc1cncc(NCc2cccnc2)n1 [Example 13] | > 30 µM | 
Oc1cncc(NCc2cccnc2)c1 [Example 14] | 5 to 15 µM | 
CCCCCOc1cncc(NCc2cccnc2)n1 [Example 15] | > 30 µM | 
CN(C)c1cncc(NCc2cccnc2)n1 [Example 16] | 15 to 30 µM | 
COc1cncc(NS(=O)(=O)c2cccnc2)n1 [Example 17] | > 30 µM | 
COc1cncc(NCc2cn[nH]c2)n1 [Example 20] | 5 to 15 µM | 
COc1cncc(NCc2cnn(C)c2)n1 [Example 21] | 15 to 30 µM | 
COc1cncc(NCc2cncnc2)n1 [Example 22] |  | 5 to 15 µM
COc1cncc(NC(=O)c2ccc3ccccc3n2)n1 [Example 23] | 5 to 15 µM | 
COc1cncc(C(=O)NCc2cccnc2)n1 [Example 24] | > 30 µM | 
CCNc1cncc(NCc2cccnc2)n1 [Example 25] | 15 to 30 µM | 
COc1cncc(NCc2cnc3ccccc3c2)n1 [Example 26] | 5 to 15 µM | 
COc1cncc(NCc2cncc3ccccc23)n1 [Example 27] | 5 to 15 µM | 
c1cncc(CNc2cncc(-n3cccn3)n2)c1 [Example 28] | 5 to 15 µM | 
CCN(C)c1cncc(NCc2cccnc2)n1 [Example 30] | > 30 µM | 

SMILES | IC50 [1] | IC50
COc1cncc(NC(C)c2cccnc2)n1 (stereo not shown) [Example 31] | 15 to 30 µM | 
COc1cncc(NC(C)c2ccccc2)n1 (stereo not shown) [Example 32] | 15 to 30 µM | 
COc1cncc(NCCCc2ccccc2)n1 [Example 33] | 5 to 15 µM | 
COc1cncc(NCc2cccnc2)c1C [Example 34] | > 30 µM | 
COc1nc(NCc2cccnc2)cnc1C [Example 35] | 5 to 15 µM | 
COc1cccc(CNc2cncc(OC)n2)c1 [Example 37] | 5 to 15 µM | 
COc1ccc(CNc2cncc(OC)n2)cc1 [Example 38] | 5 to 15 µM | 
COc1cncc(NCc2cccc(F)c2)n1 [Example 39] | 5 to 15 µM | 
COc1cncc(NCC2CCOCC2)n1 [Example 41] | > 30 µM | 
COc1cncc(NCc2ccn(C)c2)n1 [Example 42] | 5 to 15 µM | 
COc1ncc(NCc2cccnc2)nc1OC [Example 43] | 15 to 30 µM | 
COc1cncc(NCc2ccc(Cl)nc2)n1 [Example 44] |  | 5 to 15 µM
COc1cncc(NCC(O)c2cccc(C(F)(F)F)c2)n1 (stereo not shown) [Example 45] | 5 to 15 µM | 
COc1cncc(NC(=O)c2ccc3ccc(Cl)cc3n2)n1 [Example 46] | > 30 µM | 
COc1cncc(NCc2ccc(NC(C)=O)cc2)n1 [Example 47] | < 5 µM | 
COc1cncc(NCc2cnc3c(c2)ncn3C)n1 [Example 48] | 15 to 30 µM | 
COc1cncc(NCC2CCOC2)n1 (stereo not shown) [Example 50] | 15 to 30 µM | 
COc1cncc(NCc2nccn2C)n1 [Example 51] | > 30 µM | 
COc1cncc(NCc2ccn(C)n2)n1 [Example 54] | 5 to 15 µM | 
COc1cncc(NCc2cn(C)cn2)n1 [Example 55] | 15 to 30 µM | 
COc1cncc(NCc2cc(C)no2)n1 [Example 56] | 5 to 15 µM | 
COc1cncc(NCc2ccoc2)n1 [Example 58] | 5 to 15 µM | 

SMILES | IC50 [1] | IC50
COc1cncc(NCc2cccn2C)n1 [Example 59] | 15 to 30 µM | 
COc1cncc(NCc2cnc[nH]2)n1 [Example 61] | < 5 µM | 
COc1cncc(NCc2ccc(S(N)(=O)=O)cc2)n1 [Example 63] | < 5 µM | 
COc1cncc(NCc2ccc(C(N)=O)cc2)n1 [Example 64] | 5 to 15 µM | 
COc1cncc(NCc2cccc(C(N)=O)c2)n1 [Example 65] | 5 to 15 µM | 
COc1cncc(NCc2cc[nH]c(=O)c2)n1 [Example 66] | 5 to 15 µM | 
COC(=O)c1ccc(CNc2cncc(OC)n2)cc1 [Example 67] | 5 to 15 µM | 
COc1cncc(NCc2cnco2)n1 [Example 68] | 5 to 15 µM | 
COc1cncc(NCc2cnc(C)s2)n1 [Example 70] | 5 to 15 µM | 
Brc1cncc(CCc2ccccc2)n1 [Example 72] | > 30 µM | 
COc1cncc(NCc2cnn(-c3ccccc3)c2)n1 [Example 73] | 5 to 15 µM | 
Cn1cc(CNc2cncc(C#N)n2)cn1 [Example 75] | > 30 µM | 
COc1cncc(NCc2ccc(C(=O)O)cc2)n1 [Example 76] | > 30 µM | 
COc1cncc(NCc2ccc(N3CCOCC3)nc2)n1 [Example 77] | 5 to 15 µM | 
COc1cncc(NCc2ccc(N3CCC(O)CC3)nc2)n1 [Example 80] | 5 to 15 µM | 
COc1cncc(NCc2ccc(N3CCNCC3)nc2)n1 [Example 81] |  | 5 to 15 µM
COc1cncc(NCc2ccc(N3CCCCC3)nc2)n1 [Example 84] | 5 to 15 µM | 
COc1cncc(NCc2ccccc2F)n1 [Example 85] | 5 to 15 µM | 
COc1cncc(NCc2ccc(F)cc2)n1 [Example 86] | 5 to 15 µM | 
COc1cncc(NCc2cnn3cccnc23)n1 [Example 89] | 15 to 30 µM | 
COc1cncc(NCc2cnn3ccccc23)n1 [Example 90] | 15 to 30 µM | 
COc1cncc(NCc2ccc(C(F)(F)F)nc2)n1 [Example 91] | 15 to 30 µM | 

SMILES | IC50 [1] | IC50
COc1cncc(NCc2cnn(C(C)C)c2)n1 [Example 92] | 5 to 15 µM | 
COCCn1cc(CNc2cncc(OC)n2)cn1 [Example 93] | 5 to 15 µM | 
COc1cnnc(NCc2cccnc2)c1 [Example 94] | 15 to 30 µM | 
COc1cc(NCc2cccnc2)cnn1 [Example 95] | > 30 µM | 
COc1cncc(NCc2ccc(Br)c(C)c2)n1 [Example 100] | 5 to 15 µM | 
COc1cncc(NCc2ccc(Br)cc2)n1 [Example 101] | < 5 µM | 
COc1cncc(NCc2cnn(CCN(C)C)c2)n1 [Example 104] | 5 to 15 µM | 
COc1cncc(NCc2cnn(C3CCNCC3)c2)n1 [Example 105] | < 5 µM | 
COc1cncc(NCc2cnn(C3CCCCC3)c2)n1 [Example 106] | 5 to 15 µM | 
COc1cncc(NCc2cnn(C3CCN(S(C)(=O)=O)CC3)c2)n1 [Example 107] | 5 to 15 µM | 
COc1cc(NCc2cccnc2)[nH]c(=O)c1 [Example 108] | > 30 µM | 
COc1cncc(NCc2cccc(Br)c2)n1 [Example 109] | 5 to 15 µM | 
COc1cncc(NC(=O)c2ccccc2)c1 [Example 110] | > 30 µM | 
COc1cncc(NC(=O)c2cccnc2)c1 [Example 111] | > 30 µM | 
COc1cncc(NCc2cnc(N3CCNCC3C)nc2)n1 (stereo not shown) [Example 112] | 5 to 15 µM | 
COc1cncc(NCc2ccc(NCCN(C)C)nc2)n1 [Example 113] | 5 to 15 µM | 
COc1cncc(NCc2ccc(N3CCNC(=O)C3)nc2)n1 [Example 114] | 5 to 15 µM | 
Cn1cc(CNc2cncc(OCc3ccccc3)n2)cn1 [Example 115] | > 30 µM | 
Cn1cc(CNc2cncc(OCC(F)F)n2)cn1 [Example 116] | 15 to 30 µM | 
